# Values joined by “and” are separate entries in the source; they are usually repeats but may differ in a detail not shown here. Equal values may be shown once.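 Compound exposure: 48 hours, 5 concentrations, 96-well plates. GI50: concentration for 50% inhibition of growth. Definition used: TGI = concentration required for complete inhibition of growth.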
# What was measured:
# Test in all cases: NCI-60 cell line screen, 48 h
# HS 578T breast = test system: HS 578T breast
# CAKI-1 renal = test system: CAKI-1 renal
# SR leukemia = test system: SR leukemia
# SF-539 CNS = test system: SF-539 CNS
# OVCAR-5 ovarian = test system: OVCAR-5 ovarian
# MALME-3M melanoma = test system: MALME-3M melanoma
# UACC-257 melanoma = test system: UACC-257 melanoma
# MDA-MB-231 breast = test system: MDA-MB-231 breast
# MDA-MB-435 = test system: MDA-MB-435
# K-562 leukemia = test system: K-562 leukemia
Structure (SMILES),GI50 (HS 578T breast),TGI (HS 578T breast),GI50 (CAKI-1 renal),TGI (CAKI-1 renal),GI50 (SR leukemia),TGI (SR leukemia),GI50 (SF-539 CNS) [µM],TGI (SF-539 CNS),GI50 (OVCAR-5 ovarian),TGI (OVCAR-5 ovarian),GI50 (MALME-3M melanoma),TGI (MALME-3M melanoma),GI50 (UACC-257 melanoma),TGI (UACC-257 melanoma),GI50 (MDA-MB-231 breast),TGI (MDA-MB-231 breast),GI50 (MDA-MB-435),TGI (MDA-MB-435),GI50 (K-562 leukemia),TGI (K-562 leukemia)
Nc1ccn(C2OC(CO)C(O)C2F)c(=O)n1 (configuration not stated),> 5000 µM,> 5000 µM,582 µM and > 5000 µM,> 5000 µM,412 µM and 2500 µM,> 5000 µM,> 5000,> 5000 µM,> 5000 µM,> 5000 µM,> 5000 µM,> 5000 µM,> 5000 µM,> 5000 µM,> 5000 µM,> 5000 µM,867 µM and > 5000 µM,> 5000 µM,> 5000 µM,> 5000 µM
COc1cccc2c1C(=O)c1c(O)c3c(c(O)c1C2=O)CC(O)(C(C)=O)CC3OC1CC(N)C(O)C(C)O1 (configuration not stated),0.0481 µg/mL,0.421 µg/mL,,0.015 µg/mL,,0.152 µg/mL,,0.113 µg/mL,0.0674 µg/mL,3.46 µg/mL,0.0663 µg/mL,0.356 µg/mL,0.116 µg/mL,2.06 µg/mL,0.0409 µg/mL,0.59 µg/mL,0.0894 µg/mL,0.33 µg/mL,0.0156 µg/mL,0.922 µg/mL
Cc1ccc(NCCCN2CCN(CCCNc3ccc(C)c4sc5ccccc5c(=O)c34)CC2)c2c(=O)c3ccccc3sc12,,79.6 µM,,> 100 µM,,> 100 µM,,> 100 µM,,> 100 µM,,> 100 µM,,> 100 µM,,> 100 µM,,> 100 µM,,> 100 µM
Cc1cc(C)nc(NC(N)=NCCc2ccccc2)n1,4.41 µM,54.9 µM,19.4 µM,97.5 µM,2.77 µM,14.5 µM,2.56,26.2 µM,9.81 µM,> 100 µM,2.23 µM,10.5 µM,2.64 µM,39.4 µM,6.55 µM,52.8 µM,1.52 µM,4.49 µM,3.56 µM,> 100 µM

# From PubChem BioAssay (NCI)
